Type in all cases: cell-based
In experiment [1] the test system is Panc-1 pancreatic cancer cell line. As to the kind of experiment: CellTiter Glo viability assay, Panc-1. The note with it: Homo sapiens; Panc-1, β-lapachone alone, 48 hours; read-out: IC50. On the procedure:
(§1) For CellTiter Glo viability assays, 10,000 cells per well were plated on Day 1 and were allowed to adhere to the plate surface for 24 hours. Optimized concentration ranges of prodrugs were determined and made via serial dilution. […] Cells were incubated with compound for 48 hours and viability was assessed on Day 4 using the CellTiter Glo Viability assay which measures metabolically active cells by quantifying the amount of ATP present.
(§2) Panc-1 cells were obtained from Tony Kouzarides' lab in the Gurdon Institute at the University of Cambridge and put into culture at passage 10 containing DMEM media (Gibco) supplemented with 1% Pen-Strep antibiotic (Gibco), 1% L-glutamine, and 10% fetal bovine serum (FBS, sterile-filtered). Aspc-1 cells were bought commercially from the American Type Culture Collection (ATCC) and put into culture containing RPMI 1640 media (Gibco) supplemented with 1% Pen-Strep antibiotic (Gibco), 1% L-glutamine, and 20% fetal bovine serum (FBS, sterile-filtered). All cell lines were started at passage 10 and passaged every 3 days by centrifuging at 1000 rpm for 4 minutes.
Background: In ATP-based viability assays light output follows the ATP content of the culture.

The test system of a further experiment is HEK-293T. As to the kind of experiment: Toxicity with/without β-glucuronidase, HEK-293T. The note with it: Homo sapiens, read-out: IC50 β-lapachone, 1. On the procedure:
(§3) Assays assessing cytotoxicity of β-lapachone and derivatives were performed by CellTiter-Blue assay (Promega) according to the manufacturer's instructions. Briefly, adherent cancer-cell lines were plated at 20,000 cells/well in 96 well plates or suspension cell lines were plated at a concentration of 2×10^5 cells/mL in 24 well plates. Compound stocks in media were made by dilution of DMSO stocks containing the compound of interest to obtain a final in-plate DMSO concentration of only 0.1%. Incubation was performed for 48 h. Following incubation, media was replaced with media containing CellTiter-Blue (Promega) in 1:10 dilution and the plates were incubated for 1.5-4 h. The fluorescence of the plates was recorded (excitation 555 nm, emission 585 nm, MiniMax i3x Reader, Molecular Devices).
(§4) Cell viability was calculated by division of the fluorescence intensity of treated wells by that of the calculated average fluorescence intensity of replicate negative control wells containing cells with 0.1% DMSO only. Values and reported error bars represent the mean and standard error of the mean of three triplicate repeats for each concentration tested. IC50 values were calculated using GraphPad Prism 8 software.
(§5) The potential of compound 37a, glucuronide-PHB-BL, as a prodrug was investigated. As discussed above, at physiological pH the compound has a relatively slow-release rate. Toxicity of Gluc-PHB-BL 37a was tested against a range of cell lines with and without added β-glucuronidase. Addition of the enzyme mimics conditions of the solid tumour environment.

In experiment [2] the test system is HL-60 (leukaemia cell line). As to the kind of experiment: Viability assay (CellTiter-Blue), HL-60. The note with it: Homo sapiens. As for the experimental part:
as §3, with “MiniMax i3x” left out, “Devices). Cell viability was calculated by division of the fluorescence intensity of treated wells by that of the calculated average fluorescence intensity of replicate negative control wells containing cells with 0.1% DMSO only. Values and reported error bars represent the mean and standard error of the mean of three triplicate repeats for each concentration tested.” for “Devices).”

The next experiment concerns range of cell lines. As to the kind of experiment: Toxicity of Gluc-PHB-BL against a range of cell lines with and without added β-glucuronidase. As to conditions: control tests. On the procedure:
as §3, §4, §5

For another experiment, the system named is HL-60 cells. As to the kind of experiment: Lysosomal inhibition assay with small molecule prodrugs. As to conditions: HL-60, NH4Cl at 30 mM. As for the experimental part:
Assays to assess the effect of lysosomal activity on prodrugs were performed as follows: HL-60 cells were plated into 96 well plates at a concentration of 2.5×10^5 cells/mL in 180 μL media. Cells were treated with 10 μL of a stock of NH4Cl in PBS (to obtain an in-plate concentration of 3 or 30 mM), 10 μL of a dilution of a DMSO stock of E64d in PBS (to obtain an in-plate concentration of 30 μM), PBS only, or a dilution of DMSO in PBS. Cells were incubated for 30 min. Following this, 10 μL of a stock of test compound made by dilution of a DMSO stock into media was added. DMSO was present in-plate at a maximum of 0.2%. Cells were incubated overnight for 16 h. Following incubation, media was replaced with media containing CellTiter-Blue (Promega) in 1:4 dilution and the plates were incubated for 6 h. The fluorescence of the plates was recorded (excitation 555 nm, emission 585 nm, MiniMax i3x Reader, Molecular Devices). Cell viability was calculated by division of the fluorescence intensity of treated wells by that of the calculated average fluorescence intensity of the relevant negative control wells. Values and reported error bars represent the mean and standard error of the mean of three triplicate repeats for each concentration tested.

For another experiment, the system named is SkBr-3. As to the kind of experiment: Toxicity with/without β-glucuronidase, SkBr-3. The note with it: Homo sapiens, SK-BR-3; SkBr-3; read-out: IC50 β-lapachone, 1. On the procedure: as §3, §4, §5
Experiment [3] deals with range of cancer cell lines, including leukaemia, breast, colon, and cervical cancer. As to the kind of experiment: Toxicity to a range of cancer cell lines (panel). The note with it: panel of cells. As for the experimental part: as §3, with “MiniMax i3x” left out, “Devices). Cell viability was calculated by division of the fluorescence intensity of treated wells by that of the calculated average fluorescence intensity of replicate negative control wells containing cells with 0.1% DMSO only. Values and reported error bars represent the mean and standard error of the mean of three triplicate repeats for each concentration tested.” for “Devices).”

The subject of experiment [4] is SKBR3 (breast cancer cell line). As to the kind of experiment: Viability assay (CellTiter-Blue), SKBR3. The note with it: Homo sapiens, SK-BR-3. As for the experimental part: as §3, with “MiniMax i3x” left out, “Devices). Cell viability was calculated by division of the fluorescence intensity of treated wells by that of the calculated average fluorescence intensity of replicate negative control wells containing cells with 0.1% DMSO only. Values and reported error bars represent the mean and standard error of the mean of three triplicate repeats for each concentration tested.” for “Devices).”
(Resazurin is reduced to fluorescent resorufin, in cell work by metabolically active cells.)

The subject of experiment [5] is Aspc-1 pancreatic cancer cell line. As to the kind of experiment: CellTiter Glo viability assay, Aspc-1. As to conditions: Homo sapiens, ASPC1; Aspc-1, β-lapachone alone, 48 hours; read-out: IC50. As for the experimental part:
as §1, §2

Experiment [6] concerns HCT-116 (colon cancer cell line). As to the kind of experiment: Viability assay (CellTiter-Blue), HCT-116. The note with it: Homo sapiens. As for the experimental part: as §3, with “MiniMax i3x” left out, “Devices). Cell viability was calculated by division of the fluorescence intensity of treated wells by that of the calculated average fluorescence intensity of replicate negative control wells containing cells with 0.1% DMSO only. Values and reported error bars represent the mean and standard error of the mean of three triplicate repeats for each concentration tested.” for “Devices).”

Molecules are shown by their SMILES.

A word on the IC50: it is the concentration that gives 50% inhibition. `CC1(C)CCC2=C(O1)c1ccccc1C(=O)C2=O` [Compound 1, β-lapachone, reference compound]: the IC50 was 2040 nM in experiment [1]; 2910 nM in the experiment with HEK-293T; 1400 nM in experiment [2]; 2750 nM with SkBr-3; 1100 to 4200 nM in experiment [3]; 2800 nM in [4]. Also, the IC50 in experiment [5] turned out to be 7660 nM; in experiment [6], 1100 nM. In the experiment with range of cell lines, the “effect of β-glucuronidase addition on toxicity” value is “not significantly affected”. In addition, the “toxicity with NH4Cl” value in the experiment on HL-60 cells is “increase in toxicity”.

These data come from patent US20250170252A1, “QUINONE PROTECTED FORMS AND CONJUGATES” (CAMBRIDGE ENTERPRISE LIMITED, priority 2022, published 2025).
